The values that follow are results of earlier work, collected in US20150132440A1, “DIPEPTIDE AND TRIPEPTIDE COMPOSITIONS AND USES” (4141 HOLDINGS, LLC, priority 2013, published 2015).

Where a SMILES comes first, the peptide text is derived from it.

The test system of one series is Caco-2 cells. Conditions: for inhibition of H2O2-induced IL-8 secretion: Caco-2 cells pretreated with amino acids (1, 2, and 5 mM) for 2 hours, then 1 mM H2O2 for 6 hours, ELISA. On the technique in general: ELISA stands for enzyme-linked immunosorbent assay.
The next series deals with L6 myotubes. The note with it: for glucose uptake rate: L6 myotubes.
The test system of series [1] is isolated skeletal muscles.
The subject of series [2] is glucose transporter GLUT-4. Conditions: compared with the other WPH components tested; for efficiency in translocating GLUT-4 to the PM: animal skeletal muscle.
Another series relates to Akt. The note with it: supplementation.
For series [3] the following is noted: ESR technique.
Series [4] concerns human dermal fibroblasts (HDFs). The note with it: for protein expression levels of intracellular antioxidant enzymes SOD1, GSH and catalase: H2O2 stressed HDF cells; for H2O2 induced DNA damage / H2O2 induced ROS production / NF-κB activation: HDF cells.

For `C[C@H](N)C(=O)O` [Ala], in the series with Caco-2 cells (Caco-2 cells), the GSH reductase activity result is reported as “enhanced”. The “inhibition of H2O2-induced IL-8 secretion” value (shortened to “inhibition”) with Caco-2 cells is given as “inhibition of H2O2-induced IL-8 secretion from Caco-2 cells was observed”.
In the case of `CN(C)CCCn1cc(C2=C(c3c[nH]c4ccccc34)C(=O)NC2=O)c2ccccc21` [GF109203X], the “stimulation of glucose uptake by Ile-Leu under inhibitor treatment” value (in the series on L6 myotubes (L6 cells); in series [1] (isolated muscles)) was “completely inhibited” each time.
Regarding `N[C@@H](Cc1c[nH]cn1)C(=O)O` [His], in the series on Caco-2 cells (Caco-2 cells), the “GSH S-transferase (GST) activity” value is “increases”. The “inhibition” value in the series with Caco-2 cells is “inhibition of H2O2-induced IL-8 secretion from Caco-2 cells was observed”.
Take `CC[C@H](C)[C@H](N)C(=O)O` [Ile, L-isoleucine]: in the series with Caco-2 cells (Caco-2 cells), the “GSH S-transferase (GST) activity” value was “elevated” and the catalase activity result is “elevated”. In the series with Caco-2 cells, the “inhibition” value was “inhibition of H2O2-induced IL-8 secretion from Caco-2 cells was observed”. Besides, in series [2], the “efficiency in translocating GLUT-4 to the PM” value is “greater efficiency” and the “efficiency of increasing glucose capture by skeletal muscle” value is given as “greater efficiency”.
Consider `CC[C@H](C)[C@H](N)C(=O)N[C@H](C(=O)O)[C@@H](C)CC` [Ile-Ile, L-Isoleucyl-L-isoleucine] (H-Ile-Ile-OH), for which the glucose uptake rate entry with L6 myotubes is on record as “significant stimulation”.
With `CC[C@H](C)[C@H](N)C(=O)N[C@@H](CC(C)C)C(=O)O` [Ile-Leu, L-Isoleucyl-L-Leucine] (H-Ile-Leu-OH), the glucose uptake rate result in the series on L6 myotubes was “significant stimulation”. Further, in series [1] (isolated muscles), the glycogen contents entry is “increased”. For the same compound, the glucose uptake entry in series [1] (isolated skeletal muscles) is reported as “stimulated”.
On to `CC[C@H](C)[C@H](NC(=O)[C@@H](N)CC(C)C)C(=O)O` [L-Leucyl-L-isoleucine] (H-Leu-Ile-OH), for which, in series [2], the “efficiency in translocating GLUT-4 to the PM” value is on record as “greater efficiency” and the “efficiency of increasing glucose capture by skeletal muscle” value is “greater efficiency”. Further, the “activation of Akt” value in the series with Akt is on record as “activation”.
On to `CC(C)C[C@H](N)C(=O)O` [Leu, L-leucine], for which, in the series on Caco-2 cells (Caco-2 cells), the “GSH S-transferase (GST) activity” value is recorded as “elevated” and the catalase activity result was “elevated”. The “inhibition” value with Caco-2 cells is “inhibition of H2O2-induced IL-8 secretion from Caco-2 cells was observed”.
With `CC(C)C[C@H](NC(=O)[C@@H](N)CC(C)C)C(=O)O` [Leu-Leu, L-Leucyl-L-leucine], in the series with L6 myotubes, the glucose uptake rate result is given as “significant stimulation”.
As for `NCCCC[C@H](N)C(=O)O` [Lys], the “GSH S-transferase (GST) activity” value in the series on Caco-2 cells (Caco-2 cells) is given as “increases”. The “inhibition” value with Caco-2 cells is “inhibition of H2O2-induced IL-8 secretion from Caco-2 cells was observed”.
As for `N[C@@H](Cc1c[nH]c2ccccc12)C(=O)O` [Trp], the “GSH S-transferase (GST) activity” value in the series with Caco-2 cells (Caco-2 cells) is “increases”. For the same compound, the “inhibition” value with Caco-2 cells is “inhibition of H2O2-induced IL-8 secretion from Caco-2 cells was observed”.
As for `CC(C)[C@H](N)C(=O)O` [Val, valine], in the series with Caco-2 cells (Caco-2 cells), the “GSH S-transferase (GST) activity” value was “elevated” and the catalase activity entry is recorded as “elevated”. Also, the “inhibition” value with Caco-2 cells is “inhibition of H2O2-induced IL-8 secretion from Caco-2 cells was observed”.
On to Ile-Val, for which the glucose uptake rate result in the series with L6 myotubes is given as “significant stimulation”.
Regarding Leu-Val, the glucose uptake rate result in the series on L6 myotubes was “significant stimulation”.
“SPP-1: peptide QLGNLGV derived from seaweed pipefish Syngnathus schlegeli”: the “hydroxyl radical scavenging activity” value in series [3] is given as “significant”. Also, in series [4], the “protein expression levels of intracellular antioxidant enzymes SOD1, GSH and catalase” value is “increase”; the “H2O2 induced DNA damage” value is on record as “effectively suppressed”; the “H2O2 induced ROS production” value is listed as “effectively suppressed”; the NF-κB activation entry was “block”.
As for “SPP-2: peptide SVMPVVA derived from seaweed pipefish Syngnathus schlegeli”, in series [3], the “hydroxyl radical scavenging activity” value is “significant”. In series [4], the “protein expression levels of intracellular antioxidant enzymes SOD1, GSH and catalase” value is listed as “increase”; the “H2O2 induced DNA damage” value is listed as “effectively suppressed”; the “H2O2 induced ROS production” value was “effectively suppressed”; the NF-κB activation result was “block”.
For Val-Leu, in the series with L6 myotubes, the glucose uptake rate result was “significant stimulation”.
